Experimental data published in ChEMBL document CHEMBL5357055, “Protoilludane-Type and Related Nor-Sesquiterpenes from Phellinus hartigii and Their Anti-Hypertrophic Activities in Rat Cardiomyocytes” (J Nat Prod, 2024).
The source made the active and inactive calls. No cut-off for these calls is given here.

How the values were obtained:
NRCM [1] = assay: Anticardiac hypertrophic activity in phenylephrine-induced hypertrophy in Sprague-Dawley rat NRCM cells assessed as attenuation of cardiomyocyte hypertrophy preincubated for 12 hrs followed by phenylephrine stimulation and measured after 48 hrs by 488-I Phalloidin/DAPI staining based fluorescence microscopic analysis; type: functional, cell-based; settings: time 60.0 hrs
NRCM [2] = assay: Anticardiac hypertrophic activity in phenylephrine-induced hypertrophy in Sprague-Dawley rat NRCM cells assessed as reduction in NPPA mRNA expression level at 50 uM preincubated for 12 hrs followed by phenylephrine stimulation and measured after 48 hrs by qRT-PCR analysis; type: functional, cell-based; settings: time 60.0 hrs
NRCM [3] = assay: Anticardiac hypertrophic activity in phenylephrine-induced hypertrophy in Sprague-Dawley rat NRCM cells assessed as reduction in inhibition of MYH7 level at 50 uM preincubated for 12 hrs followed by phenylephrine stimulation and measured after 48 hrs by Westernblot analysis; type: functional, cell-based; settings: time 60.0 hrs
NRCM [4] = assay: Anticardiac hypertrophic activity in phenylephrine-induced hypertrophy in Sprague-Dawley rat NRCM cells assessed as reduction in inhibition of ANP level at 50 uM preincubated for 12 hrs followed by phenylephrine stimulation and measured after 48 hrs by Westernblot analysis; type: functional, cell-based; settings: time 60.0 hrs
NRCM [5] = assay: Anticardiac hypertrophic activity in phenylephrine-induced hypertrophy in Sprague-Dawley rat NRCM cells assessed as reduction in NPPB mRNA expression level at 50 uM preincubated for 12 hrs followed by phenylephrine stimulation and measured after 48 hrs by qRT-PCR analysis; type: functional, cell-based; settings: time 60.0 hrs
[6] = Cytotoxicity against NRCM cells assessed as reduction in cell viability measured after 48 hrs by CCK-8 method; type: toxicity, cell-based; settings: rat

Row | SMILES | Activity (NRCM [1]) | Activity (NRCM [2]) | Activity (NRCM [3]) | Activity (NRCM [4]) | Activity (NRCM [5]) | CC50 at 48 h [6] [µM]
1 | COC(=O)[C@@H]1C[C@@H]2C[C@@H](C)[C@@H]3C(=O)C[C@]3(C)[C@H]2C1 | Active | Active | Active | Active | Active | > 50
2 | COC(=O)[C@@H]1C[C@@H]2C[C@@H](C)[C@@H]3OC(=O)C[C@]3(C)[C@H]2C1 | Active | Active | Active | Active | Active | > 50
3 | C[C@@]12CC[C@@](C)(C1=O)[C@H]1C[C@H](C(=O)O)C[C@H]1C2 | Active | Active | Active | Active | Active | > 50
